Here are results for two compounds from publication PMC5320518, “Novel Liver-targeted conjugates of Glycogen Phosphorylase Inhibitor PSN-357 for the Treatment of Diabetes: Design, Synthesis, Pharmacokinetic and Pharmacological Evaluations” (Scientific Reports, 2017).

Where two headings read alike, the source gives them in different places.

For series [1], the system named is isolated rat hepatocytes. Nature of the series: Glycogenolysis inhibition in isolated rat hepatocytes. It is filed as cell-based. The conditions noted are these: mean ± S.D. of three, NI means no inhibition. The text has this:
To evaluate the effects of all compounds in cells, the glycogenolysis assays were established in both rat and human liver cells based on the published method. […] The inhibitory activities of the derivatives of PSN-357 (e.g. 25–28) were also explored. It is not surprising that the derivatives still retained micromolar inhibitory activities. Introduction of steric bulks to the hydroxyl group (e.g. 33, 40, 42, 48) led to a complete loss of activity. Data analysis indicated no clear SAR for the substitutents in the cell-based assays.
The inhibition of hepatic glycogenolysis was monitored by the measurement of liver glycogen, which was done quantitatively by the anthrone reagent (Sigma) colorimetric method based on the published method. Isolated rat hepatocytes or HepG2 cells (Sigma) were treated with the test compound or DMSO solvent (final concentration, 0.10%), followed by 60-min incubation with 0.3 nM glucagon (GGN). Assays were terminated by centrifugation, and cells were digested with 30% KOH followed by glycogen determination. The IC50 values were estimated by fitting the inhibition data to a dose-dependent curve using a logistic derivative equation.

For series [2], the target named is T1, rabbit muscle GPa (RMGPa) (Oryctolagus cuniculus, UniProt P00489).
T1 sequence (P00489 2-843 limits assumed): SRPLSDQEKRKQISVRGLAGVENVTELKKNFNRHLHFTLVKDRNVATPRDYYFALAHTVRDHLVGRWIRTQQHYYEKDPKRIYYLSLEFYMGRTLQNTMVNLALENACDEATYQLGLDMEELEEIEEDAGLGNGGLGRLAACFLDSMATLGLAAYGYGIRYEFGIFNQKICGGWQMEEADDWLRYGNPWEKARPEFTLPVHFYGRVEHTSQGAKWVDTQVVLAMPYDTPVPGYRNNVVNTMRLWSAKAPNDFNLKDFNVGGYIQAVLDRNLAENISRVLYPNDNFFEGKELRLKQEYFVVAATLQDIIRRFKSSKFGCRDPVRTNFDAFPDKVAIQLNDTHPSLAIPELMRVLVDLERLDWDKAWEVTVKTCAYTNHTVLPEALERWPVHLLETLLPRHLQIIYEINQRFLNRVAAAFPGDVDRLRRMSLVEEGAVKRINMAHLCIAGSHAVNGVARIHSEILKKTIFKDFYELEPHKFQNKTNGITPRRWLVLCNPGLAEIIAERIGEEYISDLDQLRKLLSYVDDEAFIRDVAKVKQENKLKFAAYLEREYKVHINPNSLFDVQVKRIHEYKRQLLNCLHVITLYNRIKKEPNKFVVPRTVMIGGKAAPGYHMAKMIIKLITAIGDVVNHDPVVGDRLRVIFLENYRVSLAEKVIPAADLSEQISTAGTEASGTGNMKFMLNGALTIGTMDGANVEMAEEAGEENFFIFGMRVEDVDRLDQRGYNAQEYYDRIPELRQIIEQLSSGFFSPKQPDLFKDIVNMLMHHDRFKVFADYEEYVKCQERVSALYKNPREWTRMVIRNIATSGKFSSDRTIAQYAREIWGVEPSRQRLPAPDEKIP
The experiment in a line: RMGPa inhibition assay (phosphate release from glucose-1-phosphate). It is filed as biochemical. The conditions noted are these: mean ± S.D. of three determinations; NI means no inhibition.

Series [3] can be described thus: Stability in simulated gastric fluid (SGF). It is filed as in vitro ADME. The conditions noted are these: SGF pH 1.21 with pepsin, 2 μM, 37 °C, 24 h incubation.
Series [4] is described as follows: Stability in simulated intestinal fluid (SIF). Type of series: in vitro ADME. The conditions noted are these: SIF pH 6.79 with pancreatin, 2 μM, 37 °C, 24 h incubation.

A word on the IC50: it is the concentration that inhibits the measured activity by half. Consider `O=C(N[C@@H](Cc1ccc(F)cc1)C(=O)N1CCC(O)CC1)c1cc2cc(Cl)ncc2[nH]1` [PSN-357], for which the IC50 in series [1] (Hepatocyte, 1 h, isolated rat hepatocytes, 60-min incubation with 0.3 nM glucagon, read-out: IC50 (glycogenolysis inhibition, rat hepatocytes)) worked out at 10.7 ± 2.73 µM; in series [2], 0.42 ± 0.01 µM.
Consider `C[C@H](CCC(=O)N[C@@H](CC(=O)O)C(=O)OC1CCN(C(=O)[C@H](Cc2ccc(F)cc2)NC(=O)c2cc3cc(Cl)ncc3[nH]2)CC1)[C@H]1CC[C@H]2[C@@H]3[C@H](O)C[C@@H]4C[C@H](O)CC[C@]4(C)[C@H]3C[C@H](O)[C@]12C` [Conjugate 6], for which, in series [3], the “stability in SGF (in words)” value is “stable”. Moreover, the IC50 stood at 13.4 µM in series [1] (Rattus norvegicus, Hepatocyte, 1 h, read-out: IC50 (glycogenolysis inhibition, rat hepatocytes), isolated rat hepatocytes, 60-min incubation with 0.3 nM glucagon); 13.4 ± 2.55 µM in series [1] (read-out: IC50 (glycogenolysis inhibition, rat hepatocytes), isolated rat hepatocytes, 60-min incubation with 0.3 nM glucagon); 31.2 ± 11.1 µM in series [2]. The “stability in SIF (in words)” value in series [4] is recorded as “stable up to 24 h”.
